Reference: US20130209543A1, “ENHANCED TREATMENT REGIMENS USING MTOR INHIBITORS” (Intellikine LLC, priority 2011, published 2013)

What was measured:
[1] = target: T1, mTOR (Homo sapiens, UniProt P42345); assay: mTOR kinase inhibition assay; format: biochemical; conditions: Table 2; read-out: mTORC IC50
T1 construct: purchased Invitrogen
Experimental: The compounds described herein and any other mTorC1/mTorC2 inhibitors known in the art can be tested against recombinant mTOR (Invitrogen) in an assay containing 50 mM HEPES, pH 7.5, 1 mM EGTA, 10 mM MgCl2, 2.5 mM, 0.01% Tween, 10 μM ATP (2.5 μCi of μ-32P-ATP), and 3 mg/mL BSA. Rat recombinant PHAS-1/4EBP1 (Calbiochem; 2 mg/mL) is used as a substrate. Reactions are terminated by spotting onto nitrocellulose, which is washed with 1M NaCl/1% phosphoric acid (approximately 6 times, 5-10 minutes each). Sheets are dried and the transferred radioactivity quantitated by phosphorimaging.
For instance, one can use Invitrogen's LanthaScreen™ Kinase assay to test the inhibitors of mTOR disclosed herein. This assay is a time resolved FRET platform that measures the phosphorylation of GFP labeled 4EBP1 by mTOR kinase. The kinase reaction is performed in a white 384 well microtitre plate. The total reaction volume is 20 μl per well and the reaction buffer composition is 50 mM HEPES pH7.5, 0.01% Polysorbate 20, 1 mM EGTA, 10 mM MnCl2, and 2 mM DTT. In the first step, each well receives 2 ul of test compound in 20% dimethylsulphoxide resulting in a 2% DMSO final concentration. Next, 8ul of mTOR diluted in reaction buffer is added per well for a 60 ng/ml final concentration. To start the reaction, 10 ul of an ATP/GFP-4EBP1 mixture (diluted in reaction buffer) is added per well for a final concentration of 10 μM ATP and 0.5 μM GFP-4EBP1. The plate is sealed and incubated for 1 hour at room temperature. […] The plate is sealed, incubated for 1 hour at room temperature, and then read on a plate reader set up for LanthaScreen™ TR-FRET. Data is analyzed and IC50s are generated using GraphPad Prism 5.

[2] = system: PC3; assay: PC3 proliferation; format: cell-based; conditions: Homo sapiens, PC-3; Table 2
[3] = target: PI3K α (Homo sapiens, UniProt P42336); assay: PI3K α kinase assay; format: biochemical; conditions: Table 2
[4] = target: PI3K δ (Homo sapiens, UniProt O00329); assay: PI3K δ kinase assay; format: biochemical; conditions: Table 2
[5] = target: PI3K γ (Homo sapiens, UniProt P48736); assay: PI3K γ kinase assay; format: biochemical; conditions: Table 2
[6] = target: PI3K β (Homo sapiens, UniProt P42338); assay: PI3K β kinase assay; format: biochemical; conditions: Table 2
PI3K β, sequence (P42338 whole entry, species assumed): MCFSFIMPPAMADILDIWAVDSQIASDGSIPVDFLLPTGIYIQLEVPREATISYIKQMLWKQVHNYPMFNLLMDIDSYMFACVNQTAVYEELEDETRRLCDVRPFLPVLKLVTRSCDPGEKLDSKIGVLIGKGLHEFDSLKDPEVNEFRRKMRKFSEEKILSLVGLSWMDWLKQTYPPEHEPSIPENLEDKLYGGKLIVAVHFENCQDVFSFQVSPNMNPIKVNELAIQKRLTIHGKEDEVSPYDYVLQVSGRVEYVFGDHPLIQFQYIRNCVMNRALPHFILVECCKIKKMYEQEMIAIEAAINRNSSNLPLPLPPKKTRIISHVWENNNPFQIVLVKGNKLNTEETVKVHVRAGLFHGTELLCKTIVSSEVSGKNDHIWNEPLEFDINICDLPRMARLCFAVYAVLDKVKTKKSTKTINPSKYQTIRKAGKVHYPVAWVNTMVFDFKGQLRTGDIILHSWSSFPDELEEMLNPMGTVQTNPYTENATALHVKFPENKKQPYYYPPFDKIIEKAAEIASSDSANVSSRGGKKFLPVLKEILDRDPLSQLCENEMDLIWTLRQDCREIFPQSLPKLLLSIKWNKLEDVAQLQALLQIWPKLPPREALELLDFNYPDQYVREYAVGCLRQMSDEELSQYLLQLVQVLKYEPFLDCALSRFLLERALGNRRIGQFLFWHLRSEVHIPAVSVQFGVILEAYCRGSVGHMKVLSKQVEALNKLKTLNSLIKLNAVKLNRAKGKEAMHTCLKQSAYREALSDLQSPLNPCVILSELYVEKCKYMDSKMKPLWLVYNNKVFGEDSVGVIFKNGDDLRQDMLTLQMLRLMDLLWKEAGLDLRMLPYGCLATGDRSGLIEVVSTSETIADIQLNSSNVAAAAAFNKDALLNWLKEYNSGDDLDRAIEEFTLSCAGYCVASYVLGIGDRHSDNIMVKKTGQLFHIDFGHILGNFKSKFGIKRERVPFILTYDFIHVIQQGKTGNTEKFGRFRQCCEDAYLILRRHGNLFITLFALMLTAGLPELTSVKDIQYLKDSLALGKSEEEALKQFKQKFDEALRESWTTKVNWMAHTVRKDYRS
PI3K β, sequence (P27986 whole entry partner, species assumed): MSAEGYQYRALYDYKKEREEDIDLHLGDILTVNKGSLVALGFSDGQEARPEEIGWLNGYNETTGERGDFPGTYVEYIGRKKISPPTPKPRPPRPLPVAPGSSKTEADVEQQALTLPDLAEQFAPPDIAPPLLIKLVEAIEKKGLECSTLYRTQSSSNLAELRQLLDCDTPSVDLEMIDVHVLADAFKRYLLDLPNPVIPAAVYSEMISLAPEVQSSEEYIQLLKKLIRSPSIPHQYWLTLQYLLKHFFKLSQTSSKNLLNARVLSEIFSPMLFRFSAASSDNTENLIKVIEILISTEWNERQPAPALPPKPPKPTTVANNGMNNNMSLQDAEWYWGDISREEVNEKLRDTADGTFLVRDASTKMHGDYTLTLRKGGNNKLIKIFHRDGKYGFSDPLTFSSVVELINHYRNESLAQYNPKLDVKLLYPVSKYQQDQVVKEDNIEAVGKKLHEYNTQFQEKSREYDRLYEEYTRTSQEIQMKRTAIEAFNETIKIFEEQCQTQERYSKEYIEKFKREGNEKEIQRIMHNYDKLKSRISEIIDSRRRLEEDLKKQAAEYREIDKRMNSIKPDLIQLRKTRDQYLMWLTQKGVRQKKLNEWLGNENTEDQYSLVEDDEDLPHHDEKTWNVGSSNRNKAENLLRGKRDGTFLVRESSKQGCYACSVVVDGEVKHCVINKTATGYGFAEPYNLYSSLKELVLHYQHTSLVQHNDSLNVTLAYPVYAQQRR

PI3K δ, sequence (O00329 whole entry, species assumed): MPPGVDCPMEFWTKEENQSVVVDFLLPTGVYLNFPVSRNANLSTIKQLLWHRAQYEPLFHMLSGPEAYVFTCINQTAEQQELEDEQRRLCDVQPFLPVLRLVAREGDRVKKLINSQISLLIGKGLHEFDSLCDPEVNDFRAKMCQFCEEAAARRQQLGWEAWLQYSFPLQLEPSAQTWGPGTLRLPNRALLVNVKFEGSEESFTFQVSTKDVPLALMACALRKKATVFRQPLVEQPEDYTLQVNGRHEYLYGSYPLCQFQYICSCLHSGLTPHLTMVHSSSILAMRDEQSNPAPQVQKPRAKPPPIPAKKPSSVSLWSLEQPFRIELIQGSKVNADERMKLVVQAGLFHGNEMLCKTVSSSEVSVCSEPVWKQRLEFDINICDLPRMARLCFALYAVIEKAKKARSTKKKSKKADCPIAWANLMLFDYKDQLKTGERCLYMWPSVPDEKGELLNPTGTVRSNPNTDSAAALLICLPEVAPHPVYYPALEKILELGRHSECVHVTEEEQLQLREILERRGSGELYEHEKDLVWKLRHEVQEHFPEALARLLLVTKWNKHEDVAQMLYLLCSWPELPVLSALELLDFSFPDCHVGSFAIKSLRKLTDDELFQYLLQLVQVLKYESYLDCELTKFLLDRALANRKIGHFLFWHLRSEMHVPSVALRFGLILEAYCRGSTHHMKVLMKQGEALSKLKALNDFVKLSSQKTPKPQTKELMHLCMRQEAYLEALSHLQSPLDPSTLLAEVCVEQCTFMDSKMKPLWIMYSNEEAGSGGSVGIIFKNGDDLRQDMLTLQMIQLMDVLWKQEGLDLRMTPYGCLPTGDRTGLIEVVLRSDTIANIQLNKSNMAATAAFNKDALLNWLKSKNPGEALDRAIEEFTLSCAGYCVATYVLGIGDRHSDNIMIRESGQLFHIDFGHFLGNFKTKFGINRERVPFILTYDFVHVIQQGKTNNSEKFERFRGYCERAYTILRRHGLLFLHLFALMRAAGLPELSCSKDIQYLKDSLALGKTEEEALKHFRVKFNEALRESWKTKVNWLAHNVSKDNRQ
PI3K δ, sequence (P27986 whole entry partner, species assumed): as the sequence (P27986 whole entry partner, species assumed) above
PI3K γ, sequence (P48736 whole entry, species assumed): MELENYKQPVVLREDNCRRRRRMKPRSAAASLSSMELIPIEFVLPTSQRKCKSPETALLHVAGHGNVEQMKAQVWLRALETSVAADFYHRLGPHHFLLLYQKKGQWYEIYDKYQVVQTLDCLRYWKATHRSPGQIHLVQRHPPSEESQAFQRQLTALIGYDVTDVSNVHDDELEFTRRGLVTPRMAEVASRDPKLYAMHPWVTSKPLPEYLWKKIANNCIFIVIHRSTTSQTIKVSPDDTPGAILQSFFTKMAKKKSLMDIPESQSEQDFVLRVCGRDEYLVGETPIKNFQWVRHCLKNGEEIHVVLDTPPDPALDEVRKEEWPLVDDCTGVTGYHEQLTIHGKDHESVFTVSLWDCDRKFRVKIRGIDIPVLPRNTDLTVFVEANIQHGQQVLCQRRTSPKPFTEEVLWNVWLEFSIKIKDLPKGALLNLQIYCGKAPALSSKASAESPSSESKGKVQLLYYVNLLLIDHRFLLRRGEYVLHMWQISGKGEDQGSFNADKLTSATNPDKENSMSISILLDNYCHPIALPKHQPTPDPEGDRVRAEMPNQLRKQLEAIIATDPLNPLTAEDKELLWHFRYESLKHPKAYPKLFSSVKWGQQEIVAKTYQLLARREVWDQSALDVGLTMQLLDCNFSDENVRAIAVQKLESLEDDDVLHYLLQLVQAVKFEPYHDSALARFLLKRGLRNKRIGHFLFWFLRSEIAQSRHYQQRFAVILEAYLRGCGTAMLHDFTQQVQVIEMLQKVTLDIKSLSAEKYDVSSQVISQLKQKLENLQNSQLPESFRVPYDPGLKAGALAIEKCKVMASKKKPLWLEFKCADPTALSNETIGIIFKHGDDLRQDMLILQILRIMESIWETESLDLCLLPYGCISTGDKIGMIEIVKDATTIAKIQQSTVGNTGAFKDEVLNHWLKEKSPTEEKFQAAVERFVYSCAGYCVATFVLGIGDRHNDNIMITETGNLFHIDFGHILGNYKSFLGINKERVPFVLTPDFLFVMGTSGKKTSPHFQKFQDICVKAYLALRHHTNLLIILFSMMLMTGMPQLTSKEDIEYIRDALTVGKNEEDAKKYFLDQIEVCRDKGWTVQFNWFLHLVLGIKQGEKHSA
PI3K α, sequence (P42336 whole entry, species assumed): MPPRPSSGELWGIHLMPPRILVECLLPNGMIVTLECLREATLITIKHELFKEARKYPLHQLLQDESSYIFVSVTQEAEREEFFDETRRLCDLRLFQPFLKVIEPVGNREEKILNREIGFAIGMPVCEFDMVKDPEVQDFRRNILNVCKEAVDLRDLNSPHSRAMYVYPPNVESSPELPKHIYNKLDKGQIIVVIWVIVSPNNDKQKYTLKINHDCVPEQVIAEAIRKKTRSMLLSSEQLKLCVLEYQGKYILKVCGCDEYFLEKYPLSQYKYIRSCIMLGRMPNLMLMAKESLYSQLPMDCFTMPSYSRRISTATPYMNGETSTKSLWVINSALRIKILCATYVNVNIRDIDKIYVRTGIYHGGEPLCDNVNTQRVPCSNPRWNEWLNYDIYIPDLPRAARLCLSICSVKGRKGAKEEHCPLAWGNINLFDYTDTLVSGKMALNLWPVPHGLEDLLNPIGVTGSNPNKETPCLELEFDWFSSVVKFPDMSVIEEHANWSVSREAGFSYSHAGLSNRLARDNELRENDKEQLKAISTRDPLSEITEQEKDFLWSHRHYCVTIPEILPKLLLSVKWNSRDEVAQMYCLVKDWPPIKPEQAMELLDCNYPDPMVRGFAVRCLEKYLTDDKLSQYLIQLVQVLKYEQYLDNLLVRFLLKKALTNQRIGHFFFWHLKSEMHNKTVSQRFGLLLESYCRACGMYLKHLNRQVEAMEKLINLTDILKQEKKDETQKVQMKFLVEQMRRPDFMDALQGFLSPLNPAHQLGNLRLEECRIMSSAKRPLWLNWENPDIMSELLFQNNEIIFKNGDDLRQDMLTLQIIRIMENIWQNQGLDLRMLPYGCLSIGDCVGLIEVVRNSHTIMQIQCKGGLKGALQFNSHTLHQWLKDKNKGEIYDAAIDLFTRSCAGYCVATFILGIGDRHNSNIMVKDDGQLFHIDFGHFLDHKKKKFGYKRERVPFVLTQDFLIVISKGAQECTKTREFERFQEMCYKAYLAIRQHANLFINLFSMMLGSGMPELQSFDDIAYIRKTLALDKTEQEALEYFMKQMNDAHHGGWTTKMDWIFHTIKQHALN
PI3K α, sequence (P27986 whole entry partner, species assumed): as the sequence (P27986 whole entry partner, species assumed) above

Structure (SMILES) | IC50 [1] [nM] | IC50 [2] [nM] | IC50 [3] [nM] | IC50 [4] [nM] | IC50 [5] [nM] | IC50 [6] [nM]
Nc1ncnc2c1c(-c1cc3cc(O)ccc3[nH]1)nn2C1CCC1 [Compound 27] | 10 to 25 | 100 to 500 |  |  |  | 
Nc1ncnc2c1c(-c1cc3cccc(O)c3[nH]1)nn2C1CCCC1 [Compound 36] | 5 to 10 | 50 to 100 | > 500 | 100 to 500 | 50 to 100 | 
Nc1ncnc2c1c(-c1cc3cccc(O)c3[nH]1)nn2C1CCN(C(=O)C2CC2)CC1 [Compound 41] | 5 to 10 |  | > 500 | > 500 | 25 to 50 | > 500
Nc1ncnc2c1c(-c1cc3c(Cl)cccc3[nH]1)nn2C1CCOCC1 [Compound 48] | 25 to 50 |  | > 500 | > 500 | > 500 | > 500
Nc1ncnc2c1c(-c1cc3cc(O)ccc3[nH]1)nn2C1CC(N2CCOCC2)C1 (centres unmarked) [Compound 49] | 5 to 10 |  | > 500 | 100 to 500 | 100 to 500 | > 500
CC(C)n1nc(-c2cc3cccc(Cl)c3[nH]2)c2c(N)ncnc21 [Compound 50] | 25 to 50 |  | > 500 | 100 to 500 | 100 to 500 | > 500
Nc1ncnc2c1c(-c1cc3cccc(Cl)c3[nH]1)nn2C1CCOCC1 [Compound 51] | 25 to 50 |  | > 500 | 100 to 500 | 100 to 500 | > 500
CN1CCN(C2CC(n3nc(-c4cc5cc(O)ccc5[nH]4)c4c(N)ncnc43)C2)CC1 (centres unmarked) [Compound 52] | 100 to 500 |  | > 500 | 100 to 500 | > 500 | > 500
CN1CCN(C2CCC(n3nc(-c4cc5cc(O)ccc5[nH]4)c4c(N)ncnc43)CC2)CC1 (centres unmarked) [Compound 58] | > 500 |  | > 500 |  | > 500 | > 500
COc1ccc2cc(-c3nn(C4CCOCC4)c4ncnc(N)c34)[nH]c2c1 [Compound 59] | > 500 |  | > 500 |  | > 500 | > 500
Nc1ncnc2c1c(-c1cc3ccc(O)cc3[nH]1)nn2C1CCOCC1 [Compound 60] | 50 to 100 |  | > 500 |  | 50 to 100 | > 500
COc1ccc(Cl)c2cc(-c3nn(C4CCOCC4)c4ncnc(N)c34)[nH]c12 [Compound 61] | 10 to 25 |  | > 500 | > 500 | > 500 | > 500
Nc1ncnc2c1c(-c1cc3cccc(O)c3[nH]1)nn2C1CCOCC1 [Compound 62] | < 5 |  | > 500 | 50 to 100 | > 500 | > 500
COc1cccc2cc(-c3nn(C4CCOCC4)c4ncnc(N)c34)[nH]c12 [Compound 63] | < 5 |  | 100 to 500 | 10 to 25 | 10 to 25 | > 500
CC(C)N1CCC(n2nc(-c3cc4cccc(O)c4[nH]3)c3c(N)ncnc32)CC1 [Compound 64] | 10 to 25 |  | > 500 | 100 to 500 | 100 to 500 | > 500
CC(=O)N1CCC(n2nc(-c3cc4ccc(O)cc4[nH]3)c3c(N)ncnc32)CC1 [Compound 65] | 5 to 10 |  | 25 to 50 | 10 to 25 | 10 to 25 | > 500
COc1cccc2cc(-c3nn(C4CCN(C(=O)C5CC5)CC4)c4ncnc(N)c34)[nH]c12 [Compound 66] | > 500 |  | > 500 | > 500 | > 500 | > 500
COc1cc(Cl)c2[nH]c(-c3nn(C4CCOCC4)c4ncnc(N)c34)cc2c1 [Compound 67] | > 500 |  | > 500 | > 500 | > 500 | > 500
Nc1ncnc2c1c(-c1cc3cc(O)cc(Cl)c3[nH]1)nn2C1CCOCC1 [Compound 68] | < 5 |  | 100 to 500 | 10 to 25 | 25 to 50 | > 500
CC(=O)N1CCC(n2nc(-c3cc4c(Cl)ccc(O)c4[nH]3)c3c(N)ncnc32)CC1 [Compound 69] | < 5 |  | > 500 | 100 to 500 | > 500 | > 500
CC(=O)N1CCC(n2nc(-c3cc4cc(O)cc(Cl)c4[nH]3)c3c(N)ncnc32)CC1 [Compound 70] | < 5 |  | 100 to 500 | 10 to 25 | 50 to 100 | > 500
CC(C)N1CCC(n2nc(-c3cc4c(Cl)ccc(O)c4[nH]3)c3c(N)ncnc32)CC1 [Compound 71] | 50 to 100 |  | > 500 | > 500 | > 500 | > 500
